According to US5096909A, “Fucosidase inhibitor” (Monsanto Company, priority 1990, dated 1992):

What was measured:
pKa (Table 1) = assay type: physicochemical
[1] = system: mammalian α-L-fucosidases; details: cited from earlier work
[2] = system: N-acetyl-β-D-hexosaminidase; test: Specificity: inhibition of other glycosidases in human liver extract at 1 mM, N-acetyl-β-D-hexosaminidase; assay type: biochemical; details: 4-umbelliferyl glycoside substrate 0.5 mM, optimal pH
Description: Tissue Post-mortem human liver, which had been stored at -20° C. until required was homogenized in deionized water (50%, w/v) in a Potter-Elvehjem homogenizer and then centrifuged at 37,000 g for 30 min in an MSE 18 centrifuge. The resultant supernatant was used as the source of human glycosidases. A lyophilized extract of liver from Charonia lampas was obtained from Seikagaku Kogyo Co., Japan for the isolation of α-L-fucosidase by the published procedure of Iijima and Egami, J. Biochem. 70, 75-78 (1971).
Enzyme Assays The glycosidase activities in an extract of human liver were assayed by using the appropriate fluorigenic 4-umbelliferyl glycoside substrate (Koch-Light, Haverhill, Suffolk, U.K.) with a concentration of 0.5 mM at the optimal pH for each enzyme [Burditt et al., Biochem. J. 189, 467-473 (1980)]. The specificity of the inhibitors was determined by assaying the glycosidases in the presence of and absence of a 1 mM solution of each compound. The nature of the inhibition of human α-L-fucosidase, the value of Ki determined by using the Dixon graphical procedure and the effect of pH on the inhibition were investigated as described previously by Al Daher et al., Biochem. J. 258, 613-615 (1989). […]

[3] = system: human immunodeficiency virus; details: cited from earlier work
α-glucosidase = details: cited from earlier work
digestive α-glucosidase = details: cited from earlier work

Compound `C[C@H]1N[C@@H](CO)[C@@H](O)[C@H](O)[C@@H]1O` [(6), 2,6-Imino-2,6,7-trideoxy-D-glycero-D-gluco-heptitol] has a pKa (pKa (Table 1)) of 7.7.
In the case of `C[C@@H]1NC[C@@H](O)[C@H](O)[C@@H]1O` [DFJ, 1,5-Dideoxy-1,5-imino-L-fucitol], the “inhibition of a number of mammalian α-L-fucosidases” value [1] is listed as “very powerful and highly specific inhibitor of a number of mammalian α-L-fucosidases”, the “Other specificities (% inhibition at 1 mM): N-acetyl-β-D-hexosaminidase” value [2] is listed as 59% and the pKa (pKa (Table 1)) is listed as 8.4.
For `OC[C@H]1NC[C@H](O)[C@@H](O)[C@@H]1O` [deoxynojirimycin (1), deoxynojirimycin], the “inhibition of human immunodeficiency virus synctium formation” value ([3]; syncytium formation) is listed as “inhibit human immunodeficiency virus synctium formation”, the “inhibition of human immunodeficiency virus replication” value ([3]; virus replication) is listed as “inhibit human immunodeficiency virus synctium formation and virus replication” and the α-glucosidase inhibition (α-glucosidase) is listed as “α-glucosidase inhibitor”.
In the case of `OC[C@H]1N[C@H](CO)[C@@H](O)[C@H](O)[C@H]1O` [α-Homonojirimycin], the “inhibition of digestive α-glucosidase activity” value (digestive α-glucosidase) is listed as “potent inhibitor of digestive α-glucosidase activity”.
